{
  "source": "patent US7208154B2",
  "about": "“Methods and compositions for the treatment of MHC-associated conditions” (Regents of the University of Michigan, priority 2002, dated 2007)",
  "key": {"[1]": {"system": "calreticulin", "assay": "Calreticulin cell surface expression in M1 cells (Western-blot, flow cytometry)", "format": "cell-based, human", "details": "0.2 μM oligonucleotide, 24 to 48 hr, Lipofectin", "protocol": "(§1) M1 cells were cultured in 6-well plate to 60–70% confluency. M1 cells were treated by 0.2 μM antisense oligonucleotide for 24 to 48 hr, using Lipofectin as a carrier. Calreticulin expression levels were determined by Western-blot and flow cytometry, using anti-calreticulin antibodies. Polyclonal rabbit anti-human calreticulin antibodies were obtained from ABR, Golden, CO."}, "[2]": {"target": "T1, calreticulin (Homo sapiens, UniProt P27797)", "T1 sequence (P27797 18-417)": "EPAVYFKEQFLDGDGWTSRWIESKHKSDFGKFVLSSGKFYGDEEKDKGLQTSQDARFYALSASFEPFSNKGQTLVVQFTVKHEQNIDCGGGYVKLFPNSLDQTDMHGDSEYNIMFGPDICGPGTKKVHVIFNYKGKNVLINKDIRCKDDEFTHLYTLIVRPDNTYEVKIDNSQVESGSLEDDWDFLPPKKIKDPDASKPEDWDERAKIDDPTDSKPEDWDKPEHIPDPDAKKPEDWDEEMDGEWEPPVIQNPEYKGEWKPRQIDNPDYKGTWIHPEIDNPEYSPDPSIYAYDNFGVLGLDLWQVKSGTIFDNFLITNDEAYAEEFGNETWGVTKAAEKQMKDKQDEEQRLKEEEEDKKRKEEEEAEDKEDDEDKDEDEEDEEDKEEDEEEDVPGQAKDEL", "assay": "Blocking of shared epitope peptide-triggered signaling (cAMP-inhibitory effect, genoprotection) in M1 cells", "format": "cell-based", "design": "endogenous in cells; host or cells: M1 human fibroblastoid cells", "details": "M1 cells pre-incubated or transfected", "protocol": "Finally, in order to determine whether these neuroprotective peptides transduce their signaling through calreticulin, two complementing protocols were executed: i) Inhibition of peptide-calreticulin interaction using anti-calreticulin antibodies, or ii) blocking calreticulin expression with antisense oligonucleotides (as shown in FIG. 13C and FIG. 13D).\nas §1"}},
  "data": [
    {"substance": "5′-GGATAGCAGCATGGCGGGCCG-3′ (listed as DNA, chemistry not given here) [calreticulin antisense oligonucleotides, calreticulin antisense oligonucleotide synthesized by Operon]", "values": [
      {"measurement": "Inhibition of calreticulin cell surface expression", "setting": "[1]", "result": "inhibited cell surface expression"},
      {"measurement": "Block of shared epitope peptide-triggered signaling / inhibitory effect on genoprotection", "setting": "[2]", "result": "blocked peptide-triggered signaling"}
    ]}
  ]
}
